Data set [1] concerns Escherichia coli ATCC 25922. The procedure, abridged:
(§1)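 Peptides were made up as 1 mg/mL stocks in sterile water. Colonies in 0.85% saline were set to 0.5 McFarland, then diluted in cation-adjusted Mueller-Hinton II broth to about 5×10^5 CFU/mL. Inoculum was combined with two-fold serial peptide dilutions in water containing 0.002% (final) polysorbate 80.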

In data set [2] the test system is Escherichia coli MCR-1 Af 45. The procedure, abridged: as §1
Data set [3] deals with Klebsiella pneumoniae SSI3010. The procedure, abridged:
as §1

Data set [4] concerns human red blood cells (hRBC). In words: Hemolysis of human red blood cells. The format is cell-based. An outline of the steps:
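Percent hemolysis is OD540 of peptide-treated supernatant relative to water-lysed cells. Each peptide was tested at 200 μg/mL against 20% (v/v) washed human erythrocytes. Incubation was 1 h at 37 °C, 300 rpm.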

[5] abbreviates: Mueller-Hinton broth II, 18-20 hours at 35° C.

Read-outs that look alike come from different tables or passages of the source. Bridge positions count the residues as written; N and C are the ends. Square brackets hold non-standard residues; d marks the D form. Peptide text beside a SMILES is read from it. Pro(4R-NH2) = N[C@H]1CN[C@H](C(=O)O)C1; Gly(N-2-aminoethyl) = NCCNCC(=O)O; Pen = CC(C)(S)[C@H](N)C(=O)O; dDab = NCC[C@@H](N)C(=O)O; Dab = NCC[C@H](N)C(=O)O

`CC[C@H](C)[C@H](NC(=O)[C@@H](NC(=O)[C@@H]1CCCN1C(=O)[C@@H](NC(=N)N)C(C)C)[C@@H](C)CC)C(=O)N[C@@H](Cc1ccc(O)cc1)C(=O)N[C@@H]1C(=O)N[C@@H](CC(N)=O)C(=O)N[C@@H](CCCNC(=N)N)C(=O)N[C@@H](CCN)C(=O)N[C@@H]([C@@H](C)O)C(=O)N[C@H](CCN)C(=O)N[C@@H](CCCCN)C(=O)N[C@H](C(=O)N[C@@H](CCN)C(=O)N[C@@H](CCCNC(=N)N)C(=O)N[C@@H](Cc2ccc(O)cc2)C(=O)O)CSSC1(C)C` [Example 187] (HELM PEPTIDE1{[CC(C)[C@H](NC(=N)N)C(=O)[*:2]].P.I.I.Y.[Pen].N.R.[Dab].T.[NCC[C@@H](N[*:1])C(=O)[*:2]].K.C.[Dab].R.Y}$PEPTIDE1,PEPTIDE1,6:R3-13:R3$$$V2.0): the “Escherichia coli ATCC 25922 MIC” value in data set [1] (setting [5]) came to 0.125 µg/mL. Moreover, in data set [2] (setting [5]), the “Escherichia coli MCR-1 Af 45 MIC” value is 0.125 µg/mL. Moreover, the “Klebsiella pneumoniae SSI3010 MIC” value in data set [3] (setting [5]) worked out at 0.125 µg/mL. Further, the “Hemolysis at 0.2 g/L” value in data set [4] (20% hRBC, 1 h at 37° C.) was found to be 0%.

As to `CC[C@H](C)[C@H](NC(=O)[C@@H]1C[C@@H](O)CN1C(=O)[C@@H](NC(=N)N)C(C)C)C(=O)N[C@H](C(=O)N[C@@H](Cc1ccc(O)cc1)C(=O)N[C@@H]1C(=O)N[C@@H](CC(N)=O)C(=O)N[C@@H](CCCNC(=N)N)C(=O)N[C@@H](CCN)C(=O)N[C@@H]([C@@H](C)O)C(=O)N[C@H](CCN)C(=O)N[C@@H](CCN)C(=O)N[C@H](C(=O)N[C@@H](CCN)C(=O)N[C@@H](CCCNC(=N)N)C(=O)N[C@@H](Cc2ccc(O)cc2)C(=O)O)CSSC1(C)C)[C@@H](C)O` [Example 195] (HELM PEPTIDE1{[CC(C)[C@H](NC(=N)N)C(=O)[*:2]].[Hyp].I.T.Y.[Pen].N.R.[Dab].T.[NCC[C@@H](N[*:1])C(=O)[*:2]].[Dab].C.[Dab].R.Y}$PEPTIDE1,PEPTIDE1,6:R3-13:R3$$$V2.0), the “Escherichia coli ATCC 25922 MIC” value in data set [1] (ATCC 25922) was determined as 0.25 µg/mL. Besides, in data set [2] (setting [5]), the “Escherichia coli MCR-1 Af 45 MIC” value was 0.0625 µg/mL. In addition, in data set [3] (SSI3010), the “Klebsiella pneumoniae SSI3010 MIC” value came to 0.125 µg/mL. For the same compound, in data set [4] (red cells of human, 1 h), the “Hemolysis at 0.2 g/L” value is on record as 0%.

`CC[C@H](C)[C@H](NC(=O)[C@@H](NC(=O)[C@@H]1C[C@@H](O)CN1C(=O)[C@@H](NC(=O)[C@@H]1C[C@@H](O)CN1C(=O)[C@H](CCCCN)NC(=O)[C@@H](N)CCCCN)C(C)C)[C@@H](C)CC)C(=O)N[C@@H](Cc1ccc(O)cc1)C(=O)N[C@H]1CSSC[C@@H](C(=O)N[C@@H](CCN)C(=O)N[C@@H](CCCNC(=N)N)C(=O)N[C@@H](Cc2ccc(O)cc2)C(=O)O)NC(=O)[C@H](CCCCN)NC(=O)[C@@H](CCN)NC(=O)[C@H]([C@@H](C)O)NC(=O)[C@H](CCN)NC(=O)[C@H](CCCNC(=N)N)NC(=O)[C@H](CC(N)=O)NC1=O` [Example 117, Lys-Lys-Hyp-Val-Hyp-Ile-Ile-Tyr-Cys-Asn-Arg-Dab-Thr-^DDab-Lys-Cys-Dab-Arg-Tyr] (HELM PEPTIDE1{K.K.[Hyp].V.[Hyp].I.I.Y.C.N.R.[Dab].T.[NCC[C@@H](N[*:1])C(=O)[*:2]].K.C.[Dab].R.Y}$PEPTIDE1,PEPTIDE1,9:R3-16:R3$$$V2.0): the “Escherichia coli ATCC 25922 MIC” value in data set [1] (ATCC 25922) is 0.03125 µg/mL. Further, in data set [2] (MCR-1 Af 45), the “Escherichia coli MCR-1 Af 45 MIC” value was 0.0625 µg/mL. Also, the “Klebsiella pneumoniae SSI3010 MIC” value in data set [3] (SSI3010) worked out at 0.125 µg/mL. Further, in data set [4] (red cells of human, 1 h), the “Hemolysis at 0.2 g/L” value was determined as 0%.

For the compound `CC[C@H](C)[C@H](NC(=O)CN(CCN)C(=O)[C@@H](NC(=O)CNCCN)C(C)C)C(=O)N[C@H](C(=O)N[C@@H](Cc1ccc(O)cc1)C(=O)N[C@@H]1C(=O)N[C@@H](CC(N)=O)C(=O)N[C@@H](CCCNC(=N)N)C(=O)N[C@@H](CCN)C(=O)N[C@@H]([C@@H](C)O)C(=O)N[C@H](CCN)C(=O)N[C@@H](CCCCN)C(=O)N[C@H](C(=O)N[C@@H](CCN)C(=O)N[C@@H](CCCNC(=N)N)C(=O)N[C@@H](Cc2ccc(O)cc2)C(=O)O)CSSC1(C)C)[C@@H](C)CC` [Example 29, Ndab-Val-Ndab-Ile-Ile-Tyr-Pen-Asn-Arg-Dab-Thr-^DDab-Lys-Cys-Dab-Arg-Tyr] (H-[Gly(N-2-aminoethyl)]V[Gly(N-2-aminoethyl)]IIY[Pen]NR[Dab]T[dDab]KC[Dab]RY-OH; disulfide 7-14), in data set [1] (ATCC 25922), the “Escherichia coli ATCC 25922 MIC” value was determined as 0.25 µg/mL. Also, the “Escherichia coli MCR-1 Af 45 MIC” value in data set [2] (MCR-1 Af 45) stood at 0.25 µg/mL. Also, in data set [3] (SSI3010), the “Klebsiella pneumoniae SSI3010 MIC” value worked out at 0.25 µg/mL. Further, the “Hemolysis at 0.2 g/L” value in data set [4] (red cells of human, 1 h) stood at 0%.

On to `CC[C@H](C)[C@H](NC(=O)[C@@H](NC(=O)[C@@H]1CCCN1C(=O)[C@@H](N)C(C)C)[C@@H](C)CC)C(=O)N[C@@H](Cc1ccc(O)cc1)C(=O)N[C@H]1CSSC(C)(C)[C@@H](C(=O)N[C@@H](CCN)C(=O)N[C@@H](CCCNC(=N)N)C(=O)N[C@@H](Cc2ccc(O)cc2)C(=O)O)NC(=O)[C@H](CCCCN)NC(=O)[C@@H](CCN)NC(=O)[C@H]([C@@H](C)O)NC(=O)[C@H](CCN)NC(=O)[C@H](CCCNC(=N)N)NC(=O)[C@H](CC(N)=O)NC1=O` [Example 141] (HELM PEPTIDE1{V.P.I.I.Y.C.N.R.[Dab].T.[NCC[C@@H](N[*:1])C(=O)[*:2]].K.[Pen].[Dab].R.Y}$PEPTIDE1,PEPTIDE1,6:R3-13:R3$$$V2.0), for which the “Escherichia coli ATCC 25922 MIC” value in data set [1] (ATCC 25922) worked out at 0.0625 µg/mL. For the same compound, in data set [2] (setting [5]), the “Escherichia coli MCR-1 Af 45 MIC” value came to 0.0625 µg/mL. Further, in data set [3] (SSI3010), the “Klebsiella pneumoniae SSI3010 MIC” value came to 0.25 µg/mL. Also, the “Hemolysis at 0.2 g/L” value in data set [4] (red cells of human, 1 h) is listed as 0%.

`CC[C@H](C)[C@H](NC(=O)[C@@H](NC(=O)[C@@H]1CCCN1C(=O)[C@@H](NC(=O)[C@@H]1C[C@@H](N)CN1C(=O)[C@H](CCCCN)NC(=O)[C@@H](N)CCCCN)C(C)C)[C@@H](C)CC)C(=O)N[C@@H](Cc1ccc(O)cc1)C(=O)N[C@@H]1C(=O)N[C@@H](CC(N)=O)C(=O)N[C@@H](CCCNC(=N)N)C(=O)N[C@@H](CCN)C(=O)N[C@@H]([C@@H](C)O)C(=O)N[C@H](CCN)C(=O)N[C@@H](CCCCN)C(=O)N[C@H](C(=O)N[C@@H](CCN)C(=O)N[C@@H](CCCNC(=N)N)C(=O)N[C@@H](Cc2ccc(O)cc2)C(=O)O)CSSC1(C)C` [Example 114, Lys-Lys-Pro((4R)NH2)-Val-Pro-Ile-Ile-Tyr-Pen-Asn-Arg-^Dab-Thr-^DDab-Lys-Cys-Dab-Arg-Tyr] (HELM PEPTIDE1{K.K.[N[C@@H]1C[C@@H](C(=O)[*:2])N([*:1])C1].V.P.I.I.Y.[Pen].N.R.[Dab].T.[NCC[C@@H](N[*:1])C(=O)[*:2]].K.C.[Dab].R.Y}$PEPTIDE1,PEPTIDE1,9:R3-16:R3$$$V2.0): in data set [1] (ATCC 25922), the “Escherichia coli ATCC 25922 MIC” value came to 0.0625 µg/mL. The “Escherichia coli MCR-1 Af 45 MIC” value in data set [2] (MCR-1 Af 45) is 0.0625 µg/mL. The “Klebsiella pneumoniae SSI3010 MIC” value in data set [3] (SSI3010) came to 0.0625 µg/mL. In data set [4] (red cells of human, 1 h), the “Hemolysis at 0.2 g/L” value worked out at 0%.

For the compound `CC[C@H](C)[C@H](NC(=O)[C@@H](NC(=O)[C@@H]1C[C@@H](N)CN1C(=O)[C@@H](NC(=O)[C@@H]1C[C@@H](N)CN1)C(C)C)[C@@H](C)CC)C(=O)N[C@@H](Cc1ccc(O)cc1)C(=O)N[C@@H]1C(=O)N[C@@H](CC(N)=O)C(=O)N[C@@H](CCCNC(=N)N)C(=O)N[C@@H](CCN)C(=O)N[C@@H]([C@@H](C)O)C(=O)N[C@H](CCN)C(=O)N[C@@H](CCCCN)C(=O)N[C@H](C(=O)N[C@@H](CCN)C(=O)N[C@@H](CCCNC(=N)N)C(=O)N[C@@H](Cc2ccc(O)cc2)C(=O)O)CSSC1(C)C` [Example 26, Pro((4R)NH2)-Val-Pro((4R)NH2)-Ile-Ile-Tyr-Pen-Asn-Arg-Dab-Thr-^DDab-Lys-Cys-Dab-Arg-Tyr] (H-[Pro(4R-NH2)]V[Pro(4R-NH2)]IIY[Pen]NR[Dab]T[dDab]KC[Dab]RY-OH; disulfide 7-14), the “Escherichia coli ATCC 25922 MIC” value in data set [1] (ATCC 25922) turned out to be 0.25 µg/mL. The “Escherichia coli MCR-1 Af 45 MIC” value in data set [2] (MCR-1 Af 45) is 0.125 µg/mL. Further, the “Klebsiella pneumoniae SSI3010 MIC” value in data set [3] (SSI3010) is 0.25 µg/mL. Further, the “Hemolysis at 0.2 g/L” value in data set [4] (red cells of human, 1 h) came to 0%.

(Values after patent publication US20230295234A1, “ANTIMICROBIAL PEPTIDOMIMETICS” (SPEXIS AG, priority 2020, published 2023).)
